From patent US8232283B2, “Raf inhibitors” (Forma Therapeutics, Inc., priority 2008, dated 2012)

Tests used:
[1] = test system: HT-29 [B-Raf V600E mutant]; assay: Anti-proliferative activity, SRB assay, 72 hours; format: cell-based; settings: Homo sapiens, read-out: CELLULAR IC50 [μM] HT-29 [B-Raf V600E mutant]
Procedure: We observed the surprising finding that compounds of the invention were useful in inhibiting proliferation of HT-29 tumor cells (see Table 3).
(§1) Cells were exposed to the test compounds at various concentrations appropriate to determine an IC50, for 72 hours, and cell proliferation was measured using the SRB assay according to Shekan et al (J Natl Cancer Inst (1990) 82, 1107-112) in order to estimate the IC50 values shown in Table 3.
(§2) Briefly, cells were plated in 96 well dishes 24 hours prior to compound addition at the densities specified in Table 11.1.
(§3) The assay was terminated with the addition of ice cold 10% TCA after growth medium has been removed and the plates were incubated over night at 4° C. The plates were then washed 5 times with water and 100 μl of a Sulforhodamine B solution ([…]) was added to each well. The plates were then incubated for 10 minutes at room temperature before removal of unbound dye by washing with 1% acetic acid. The bound dye was solubilized with 10 mM Trizma base and the absorbance read at OD520.
(§4) Inhibitory activity of the compounds was calculated as % inhibition of cell proliferation compared to cells treated with the solvent (DMSO).

A-431 [B-Raf wildtype] = assay: Anti-proliferative activity, SRB assay, 72 hours; format: cell-based; settings: Homo sapiens, read-out: CELLULAR IC50 [μM] A-431 [B-Raf wildtype]
Procedure: as §1, §2, §3, §4

IC50 [1] [µM] | IC50 (A-431 [B-Raf wildtype]) [µM] | SMILES
< 5 | > 10 | COn1c(=O)c(-c2cc(NC(=O)c3ccc(Cl)c(C(F)(F)F)c3)ccc2Cl)cc2cnc(NCCN(C)C)nc21 [Compound 3, 4-Chloro-N-{4-chloro-3-[2-(2-dimethylamino-ethylamino)-8-methoxy-7-oxo-7,8-dihydro-pyrido[2,3-d]pyrimidin-6-yl]-phenyl}-3-trifluoromethyl-benzamide]
< 5 | < 10 | COn1c(=O)c(-c2ccc(NC(=O)c3ccc(Cl)c(C(F)(F)F)c3)cc2Cl)cc2cnc(NCCN(C)C)nc21 [Compound 6, 4-Chloro-N-{3-chloro-4-[2-(2-dimethylamino-ethylamino)-8-methoxy-7-oxo-7,8-dihydro-pyrido[2,3-d]pyrimidin-6-yl]-phenyl}-3-trifluoromethyl-benzamide]
< 10 | > 10 | COn1c(=O)c(-c2cc(NC(=O)c3cc(Cl)nc(Cl)c3)ccc2Cl)cc2cnc(NCCN(C)C)nc21 [Compound 7, 2,6-Dichloro-N-(4-chloro-3-(2-(2-(dimethylamino)ethylamino)-8-methoxy-7-oxo-7,8-dihydropyrido[2,3-d]pyrimidin-6-yl)phenyl)-isonicotinamide]
> 10 | > 10 | COn1c(=O)c(-c2cc(NC(=O)c3cc(C(C)(C)C)n[nH]3)ccc2Cl)cc2cnc(NCCN(C)C)nc21 [Compound 9, 5-tert-Butyl-2H-pyrazole-3-carboxylic acid {4-chloro-3-[2-(2-dimethylamino-ethylamino)-8-methoxy-7-oxo-7,8-dihydro-pyrido[2,3-d]pyrimidin-6-yl]-phenyl}-amide]
< 10 | > 10 | COn1c(=O)c(-c2cc(NC(=O)c3ccc(C(F)(F)F)c(F)c3)ccc2Cl)cc2cnc(NCCN(C)C)nc21 [Compound 12, N-{4-Chloro-3-[2-(2-dimethylamino-ethylamino)-8-methoxy-7-oxo-7,8-dihydro-pyrido[2,3-d]pyrimidin-6-yl]-phenyl}-3-fluoro-4-trifluoromethyl-benzamide]
< 10 | > 10 | COn1c(=O)c(-c2cc(NC(=O)c3cc4ccccc4n3C)ccc2Cl)cc2cnc(NCCN(C)C)nc21 [Compound 13, 1-Methyl-1H-indole-2-carboxylic acid {4-chloro-3-[2-(2-dimethylamino-ethylamino)-8-methoxy-7-oxo-7,8-dihydro-pyrido[2,3-d]pyrimidin-6-yl]-phenyl}-amide]
< 5 | > 10 | COc1ccc(C(F)(F)F)cc1C(=O)Nc1ccc(Cl)c(-c2cc3cnc(NCCN(C)C)nc3n(OC)c2=O)c1 [Compound 14, N-{4-Chloro-3-[2-(2-dimethylamino-ethylamino)-8-methoxy-7-oxo-7,8-dihydro-pyrido[2,3-d]pyrimidin-6-yl]-phenyl}-2-methoxy-5-trifluoromethyl-benzamide]
< 5 | > 10 | COc1cc(C(F)(F)F)ccc1C(=O)Nc1ccc(Cl)c(-c2cc3cnc(NCCN(C)C)nc3n(OC)c2=O)c1 [Compound 15, N-{4-Chloro-3-[2-(2-dimethylamino-ethylamino)-8-methoxy-7-oxo-7,8-dihydro-pyrido[2,3-d]pyrimidin-6-yl]-phenyl}-2-methoxy-4-trifluoromethyl-benzamide]
> 10 | > 10 | COn1c(=O)c(-c2cc(NC(=O)c3ccc(C(F)(F)F)cc3F)ccc2Cl)cc2cnc(NCCN(C)C)nc21 [Compound 20]
< 5 | > 10 | COc1ccc(C(=O)Nc2ccc(Cl)c(-c3cc4cnc(NCCN(C)C)nc4n(OC)c3=O)c2)cc1Cl [Compound 21, 3-Chloro-N-{4-chloro-3-[2-(2-dimethylamino-ethylamino)-8-methoxy-7-oxo-7,8-dihydro-pyrido[2,3-d]pyrimidin-6-yl]-phenyl}-4-methoxy-benzamide]
< 5 | > 10 | COn1c(=O)c(-c2cc(NC(=O)c3cc(Cl)cc(Cl)c3)ccc2Cl)cc2cnc(NCCN(C)C)nc21 [Compound 22, 3,5-Dichloro-N-{4-chloro-3-[2-(2-dimethylamino-ethylamino)-8-methoxy-7-oxo-7,8-dihydro-pyrido[2,3-d]pyrimidin-6-yl]-phenyl}-benzamide]
< 5 | > 10 | COn1c(=O)c(-c2cc(NC(=O)Cc3cccc(C(F)(F)F)c3)ccc2Cl)cc2cnc(NCCN(C)C)nc21 [Compound 25, N-{4-Chloro-3-[2-(2-dimethylamino-ethylamino)-8-methoxy-7-oxo-7,8-dihydro-pyrido[2,3-d]pyrimidin-6-yl]-phenyl}-2-(3-trifluoromethyl-phenyl)-acetamide]
< 10 | > 10 | COn1c(=O)c(-c2cc(NC(=O)c3cc(C(F)(F)F)ccc3Cl)ccc2Cl)cc2cnc(NCCN(C)C)nc21 [Compound 29, 2-Chloro-N-{4-chloro-3-[2-(2-dimethylamino-ethylamino)-8-methoxy-7-oxo-7,8-dihydro-pyrido[2,3,-d]pyrimidin-6-yl]-phenyl}-5-trifluoromethyl-benzamide]
> 10 | > 10 | COn1c(=O)c(-c2cc(NC(=O)c3ccccc3)ccc2Cl)cc2cnc(NCCN(C)C)nc21 [Compound 33, N-{4-Chloro-3-[2-(2-dimethylamino-ethylamino)-8-methoxy-7-oxo-7,8-dihydro-pyrido[2,3-d]pyrimidin-6-yl]-phenyl}-benzamide]
< 10 | > 10 | COn1c(=O)c(-c2cc(NC(=O)c3ccc(C(F)(F)F)cc3)ccc2Cl)cc2cnc(NCCN(C)C)nc21 [Compound 34, N-{4-Chloro-3-[2-(2-dimethylamino-ethylamino)-8-methoxy-7-oxo-7,8-dihydro-pyrido[2,3-d]pyrimidin-6-yl]-phenyl}-4-trifluoromethyl-benzamide]
< 5 | > 10 | COn1c(=O)c(-c2cc(NC(=O)c3cc(C(F)(F)F)cc(C(F)(F)F)c3)ccc2Cl)cc2cnc(NCCN(C)C)nc21 [Compound 35, N-{4-Chloro-3-[2-(2-dimethylamino-ethylamino)-8-methoxy-7-oxo-7,8-dihydro-pyrido[2,3-d]pyrimidin-6-yl]-phenyl}-3,5-bis-trifluoromethyl-benzamide]
> 10 | > 10 | COn1c(=O)c(-c2cc(NC(=O)c3ccccc3Cl)ccc2Cl)cc2cnc(NCCN(C)C)nc21 [Compound 36, 2-Chloro-N-{4-chloro-3-[2-(2-dimethylamino-ethylamino)-8-methoxy-7-oxo-7,8-dihydro-pyrido[2,3-d]pyrimidin-6-yl]-phenyl}-benzamide]
> 10 | > 10 | COn1c(=O)c(-c2cc(NC(=O)c3ccc(Cl)cc3)ccc2Cl)cc2cnc(NCCN(C)C)nc21 [Compound 38, 4-Chloro-N-{4-chloro-3-[2-(2-dimethylamino-ethylamino)-8-methoxy-7-oxo-7,8-dihydro-pyrido[2,3-d]pyrimidin-6-yl]-phenyl}-benzamide]
> 10 | > 10 | COn1c(=O)c(-c2cc(NC(=O)c3nc4ccc(F)cc4[nH]3)ccc2Cl)cc2cnc(NCCN(C)C)nc21 [Compound 40, 6-Fluoro-1H-benzoimidazole-2-carboxylic acid {4-chloro-3-[2-(2-dimethylamino-ethylamino)-8-methoxy-7-oxo-7,8-dihydro-pyrido[2,3-d]pyrimidin-6-yl]-phenyl}-amide]
< 5 | < 10 | COn1c(=O)c(-c2cc(NC(=O)Nc3ccc(Oc4ccccc4)cc3)ccc2Cl)cc2cnc(NCCN(C)C)nc21 [Compound 45, 1-{4-Chloro-3-[2-(2-dimethylamino-ethylamino)-8-methoxy-7-oxo-7,8-dihydro-pyrido[2,3-d]pyrimidin-6-yl]-phenyl}-3-(4-phenoxy-phenyl)-urea]
< 5 | > 10 | COn1c(=O)c(-c2cc(NC(=O)Nc3ccc(Cl)cc3)ccc2Cl)cc2cnc(NCCN(C)C)nc21 [Compound 46, 1-{4-Chloro-3-[2-(2-dimethylamino-ethylamino)-8-methoxy-7-oxo-7,8-dihydro-pyrido[2,3-d]pyrimidin-6-yl]-phenyl}-3-(4-chloro-phenyl)-urea]
< 5 | > 10 | COn1c(=O)c(-c2cc(NC(=O)Nc3cccc(C(F)(F)F)c3F)ccc2Cl)cc2cnc(NCCN(C)C)nc21 [Compound 48, 1-{4-Chloro-3-[2-(2-dimethylamino-ethylamino)8-methoxy-7-oxo-7,8-dihydro-pyrido[2,3-d]pyrimidin-6-yl]-phenyl}-3-(2-fluoro-3-trifluoromethyl-phenyl)-urea]
< 5 | > 10 | COn1c(=O)c(-c2cc(NC(=O)Nc3cc(C(F)(F)F)ccc3F)ccc2Cl)cc2cnc(NCCN(C)C)nc21 [Compound 49, 1-{4-Chloro-3-[2-(2-dimethylamino-ethylamino)-8-methoxy-7-oxo-7,8-dihydro-pyrido[2,3-d]pynmidin-6-yl]-phenyl}-3-(2-fluoro-5-trifluoromethyl-phenyl)-urea]
< 5 | < 10 | COc1cc(C(F)(F)F)ccc1C(=O)Nc1ccc(-c2cc3cnc(NCCN(C)C)nc3n(OC)c2=O)c(Cl)c1 [Compound 51, N-{3-Chloro-4-[2-(2-dimethylamino-ethylamino)-8-methoxy-7-oxo-7,8-dihydro-pyrido[2,3-d]pyrimidin-6-yl]-phenyl}-2-methoxy-4-trifluoromethyl-benzamide]
